According to patent US8575173B2, “Piperazinyl 3-aminopyrrolidine derivatives as a CCR2 antagonists” (Yang Ji Chemical Co., Ltd., priority 2009, dated 2013):

Experiments:
HepG2 = experiment: Cytotoxicity (cell viability, MTS assay), HepG2; assay type: cell-based; settings: 10 μM compound, vs control group
Text: (§1) The MTS (3-(4,5-dimethylthiazol-2-yl)-5-(3-carboxymethoxyphenyl)-2-(4-sulfophenyl)-2H-tetrazolium, inner salt, Promega, U.S.A) assay to THP-1 cell is used to measure cytotoxicity of test compound. The MTS assay is applicable to sensitively measure viability, multiplication and activity of cell and is a method using transformation the yellow MTS into insoluble formazan by dehydrogenase of mitochondria during metabolism of viable cell. The THP-1 cell is proliferated on RPMI-1640 supplemented with 10% fetal bovine serum under 37° C., at 5% CO2 incubator. Cell density is maintained around 0.5×10^6 cells/ml. THP-1 cell is poured into 96-well plate in 1×10^6 cell/ml and treating with 1, 10 μM concentration of test compound, after 24 hours 20 μl of 317 μg/ml MTS is treated to 96-well plate. Cell viability as the he absorbance of crystalline formazan of test group to control group observed at 490 nm using ELISA reader after 1 hour is calculated by following mathematical formula 2. Cell viability(%)=(Absorbance of experimental wells)/(Absorbance of control wells))×100 [Mathematical Formula 2]
(§2) The cell cytotoxicity test is performed to many cell lines, for example HepG2, NIH3T3, CHO-K1, HEK293, in addition to THP-1 illustrated above, and test procedures related to these are same or similar as described method above.

CYP2C19 = CYP2C19 (Homo sapiens, UniProt P33261); experiment: CYP450 inhibitory activity, CYP2C19; assay type: in vitro ADME; settings: CYP2C19 enzyme membrane, 10 μM compound, read-out: Inhibition of CYP450, % @10 μM: 2C19
Method: (§3) It is analyzed inhibitory activity assay on 5 types (CYP3A4, 2C9, 2C19, 2D6, 1A2) of 11 types CYP450, drug metabolic enzyme. Luciferin detection reagent is dissolved in buffer solution and each CYP enzyme membrane is prepared.
(§4) 4-fold concentration of the compound in 6.25 μl is prepared, and added to 6.25 μl mixture containing enzyme and proper different substrate depending on enzyme types, and kept for 10 min. After reacting with 12.5 μl NADPH regeneration reagent of CYP enzyme for 30 min, adding 25 μl luciferin detection reagent and keeping for 20 min, luminescence is measured at Fusion α.

CYP1A2 = biological target: T1, CYP1A2 (Homo sapiens, UniProt P05177); experiment: CYP450 inhibitory activity, CYP1A2; assay type: in vitro ADME; settings: CYP1A2 enzyme membrane, 10 μM compound, read-out: Inhibition of CYP450, % @10 μM: 1A2
T1 sequence (P05177 1-516): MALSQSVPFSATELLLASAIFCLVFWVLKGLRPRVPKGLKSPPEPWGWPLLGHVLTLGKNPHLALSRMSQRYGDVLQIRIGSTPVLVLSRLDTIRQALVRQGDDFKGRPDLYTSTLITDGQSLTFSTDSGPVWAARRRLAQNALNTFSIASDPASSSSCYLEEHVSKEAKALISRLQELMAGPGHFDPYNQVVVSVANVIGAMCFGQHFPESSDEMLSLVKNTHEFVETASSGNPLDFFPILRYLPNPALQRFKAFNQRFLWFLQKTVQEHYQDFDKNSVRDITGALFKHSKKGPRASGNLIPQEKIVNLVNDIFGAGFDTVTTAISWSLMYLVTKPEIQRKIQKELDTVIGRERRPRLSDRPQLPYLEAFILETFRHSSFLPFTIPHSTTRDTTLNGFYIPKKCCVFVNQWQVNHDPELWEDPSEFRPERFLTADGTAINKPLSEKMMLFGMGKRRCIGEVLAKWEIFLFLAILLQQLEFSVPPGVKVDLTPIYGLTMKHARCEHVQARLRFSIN
Method: as §3, §4

CCR2b = biological target: T2, CCR2b (Homo sapiens, UniProt P41597); experiment: CCR2 inhibitory effect on Ca2+ flux (HEK293/CCR2b, MCP-1 stimulated); assay type: cell-based; settings: HEK293/CCR2b cells, MCP-1 added; read-out: Blocking Ca^2+ flux, IC50
T2 construct: expressed in transfected cells; host or cells: HEK293
T2 sequence (P41597 1-360 isoform P41597-2): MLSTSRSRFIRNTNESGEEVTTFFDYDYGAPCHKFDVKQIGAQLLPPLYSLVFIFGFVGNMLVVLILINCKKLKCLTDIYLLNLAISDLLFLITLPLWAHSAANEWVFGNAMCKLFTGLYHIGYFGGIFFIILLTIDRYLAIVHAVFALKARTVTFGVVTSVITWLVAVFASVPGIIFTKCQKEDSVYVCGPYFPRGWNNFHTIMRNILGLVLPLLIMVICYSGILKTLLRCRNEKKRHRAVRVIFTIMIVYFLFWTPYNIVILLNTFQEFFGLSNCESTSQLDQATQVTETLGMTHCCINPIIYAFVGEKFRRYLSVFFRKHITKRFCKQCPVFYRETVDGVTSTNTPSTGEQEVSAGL
Method: After seeding CCR2b transformed cell (HEK293/CCR2b) on black-clear bottom plate coated with lysine, it was adapted for 24 hours and exchanged into serum free media (DMEM) and allowed to cultivate overnight. Next day After the compound is treated with Flour-4 (calcium dye, Molecular probe) and cultivated for 50 min on incubator, it is washed calcium-free buffer solution and pretreated for 10-15 min. It is added with MCP-1 and its signal is measured with FlexStation^II (Molecular device).

CCR2 [1] = biological target: T3, CCR2 (Homo sapiens, UniProt P41597); experiment: CCR2 receptor protein binding assay ([125I]-MCP1); parameters: purchased Perkinelmer, USA; host or cells: CHO cell membranes; settings: [125I]-MCP1 binding, CCR2 membrane expressed in CHO cell; read-out: Affinity to CCR2 receptor, IC50
Method: The buffer used for receptor binding assay is 50 mM Hepes (pH 7.4) containing 5 mM MgCl2, 1 mM CaCl2 and 0.5% BSA. The resultant reaction mixture in final volume 0.25 ml is prepared by adding CCR2 membrane (10 μg/well), [^125I]-MCP1 to test drug in 96-well plate on [^125I]-MCP1 binding assay and is cultivated on 27° C. for 60 min.
After incubation, reaction is terminated with fast filtering through Wallac filtermat A GF/C glass fiber filter (Wallac, Finland) pre-wetted in 0.5% PEI using Inotech harvester (Inotech) and is washed in cold 50 mM Tris-HCl (pH 7.4) buffer solution. After filter is covered with MeltiLex, it is sealed in sample bag, dried on oven, and counted using MicroBeta Plus (Wallac).
[…] is used in non-specific binding measurement.

CYP2C9 = CYP2C9 (Homo sapiens, UniProt P11712); experiment: CYP450 inhibitory activity, CYP2C9; assay type: in vitro ADME; settings: CYP2C9 enzyme membrane, 10 μM compound, read-out: Inhibition of CYP450, % @10 μM: 2C9
Method: as §3, §4

CYP3A4 = CYP3A4 (Homo sapiens, UniProt P08684); experiment: CYP450 inhibitory activity, CYP3A4; assay type: in vitro ADME; settings: CYP3A4 enzyme membrane, 10 μM compound, read-out: Inhibition of CYP450, % @10 μM: 3A4
Method: as §3, §4

CYP2D6 = CYP2D6 (Homo sapiens, UniProt P10635); experiment: CYP450 inhibitory activity, CYP2D6; assay type: in vitro ADME; settings: CYP2D6 enzyme membrane, 10 μM compound, read-out: Inhibition of CYP450, % @10 μM: 2D6
Method: Luciferin detection reagent is dissolved in buffer solution and each CYP enzyme membrane is prepared. […] After reacting with 12.5 μl NADPH regeneration reagent of CYP enzyme for 30 min, adding 25 μl luciferin detection reagent and keeping for 20 min, luminescence is measured at Fusion α.

CHO-K1 = experiment: Cytotoxicity (cell viability, MTS assay), CHO-K1; assay type: cell-based; settings: 10 μM compound, vs control group
Text: as §1, §2

NIH 3T3 = experiment: Cytotoxicity (cell viability, MTS assay), NIH 3T3; assay type: cell-based; settings: 10 μM compound, vs control group
Text: as §1, §2

CCR2 [2] = biological target: T3, CCR2; experiment: Inhibitory effect on MCP-1 induced chemotaxis of THP-1 cells; assay type: cell-based; parameters: endogenous in cells; host or cells: THP-1; settings: hMCP-1 10 ng/ml, 2 hours, read-out: Inhibition of Chemotaxis, IC50
Method: Antagonistic effect on the compound on CCR2 activity was measured by leukocyte chemotaxis assay using a proper cell line.
The used cell line is THP-1 and it is proliferated RPMI-1640 supplemented with 10% fetal calf serum under 37° C. at 5% CO2 incubator. Cell density was maintained near about 0.5×10^6 cells/ml.
Cell is allowed to have chemotaxis under 37° C., 5% CO2 incubator for 2 hours. After incubating for 2 hours, cells which is not moved from the upper side of filter are removed by wiping the filter with cotton swab.
The cells moved to lower chamber was measured using fluorescent plate reader under λexcite=480 nm, λexit=520 nm.
The chemotaxis may be described as chemotaxis coefficient, ratio between mean value of cells moved under existence of MCP-1 and mean value of cells moved under absence of chemokine.

HEK 293 = experiment: Cytotoxicity (cell viability, MTS assay), HEK 293; assay type: cell-based; settings: 10 μM compound, vs control group
Text: as §1, §2

T3 sequence (P41597 whole entry): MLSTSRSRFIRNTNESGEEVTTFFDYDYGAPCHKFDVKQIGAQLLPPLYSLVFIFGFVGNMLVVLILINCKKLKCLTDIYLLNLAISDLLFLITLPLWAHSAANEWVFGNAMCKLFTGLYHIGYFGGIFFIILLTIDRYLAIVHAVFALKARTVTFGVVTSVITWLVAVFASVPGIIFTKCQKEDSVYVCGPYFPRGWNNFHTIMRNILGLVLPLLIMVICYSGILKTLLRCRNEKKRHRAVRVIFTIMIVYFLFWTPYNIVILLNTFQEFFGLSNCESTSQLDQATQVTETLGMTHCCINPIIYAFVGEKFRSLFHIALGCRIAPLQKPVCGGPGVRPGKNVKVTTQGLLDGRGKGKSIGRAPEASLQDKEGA
Sequence of CYP2C19 (P33261 whole entry): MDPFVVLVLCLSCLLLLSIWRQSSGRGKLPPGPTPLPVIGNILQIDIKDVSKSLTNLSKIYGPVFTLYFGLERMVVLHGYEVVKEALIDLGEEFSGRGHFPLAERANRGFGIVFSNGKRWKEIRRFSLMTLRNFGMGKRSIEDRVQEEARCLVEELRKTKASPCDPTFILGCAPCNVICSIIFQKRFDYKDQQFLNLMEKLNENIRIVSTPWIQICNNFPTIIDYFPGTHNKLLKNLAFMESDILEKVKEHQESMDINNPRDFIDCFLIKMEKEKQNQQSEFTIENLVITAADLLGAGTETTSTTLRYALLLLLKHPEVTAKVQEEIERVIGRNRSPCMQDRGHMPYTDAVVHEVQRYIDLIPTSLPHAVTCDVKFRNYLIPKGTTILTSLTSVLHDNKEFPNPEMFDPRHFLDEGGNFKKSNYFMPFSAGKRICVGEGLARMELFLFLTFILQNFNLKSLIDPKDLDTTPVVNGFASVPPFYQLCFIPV
Sequence of CYP3A4 (P08684 whole entry): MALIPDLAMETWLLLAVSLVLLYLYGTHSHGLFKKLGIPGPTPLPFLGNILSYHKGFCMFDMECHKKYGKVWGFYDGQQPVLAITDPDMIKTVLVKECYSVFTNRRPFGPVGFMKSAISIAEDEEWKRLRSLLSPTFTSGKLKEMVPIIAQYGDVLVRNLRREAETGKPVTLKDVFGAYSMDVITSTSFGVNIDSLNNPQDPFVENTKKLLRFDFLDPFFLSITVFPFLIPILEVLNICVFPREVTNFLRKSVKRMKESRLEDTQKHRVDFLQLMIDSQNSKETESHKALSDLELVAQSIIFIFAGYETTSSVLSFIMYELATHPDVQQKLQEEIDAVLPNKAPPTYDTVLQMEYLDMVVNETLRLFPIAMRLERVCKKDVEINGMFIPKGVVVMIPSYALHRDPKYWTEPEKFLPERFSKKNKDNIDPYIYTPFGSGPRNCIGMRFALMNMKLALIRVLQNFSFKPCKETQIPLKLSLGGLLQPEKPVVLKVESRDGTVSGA
Sequence of CYP2D6 (P10635 whole entry, the tested form may be a part): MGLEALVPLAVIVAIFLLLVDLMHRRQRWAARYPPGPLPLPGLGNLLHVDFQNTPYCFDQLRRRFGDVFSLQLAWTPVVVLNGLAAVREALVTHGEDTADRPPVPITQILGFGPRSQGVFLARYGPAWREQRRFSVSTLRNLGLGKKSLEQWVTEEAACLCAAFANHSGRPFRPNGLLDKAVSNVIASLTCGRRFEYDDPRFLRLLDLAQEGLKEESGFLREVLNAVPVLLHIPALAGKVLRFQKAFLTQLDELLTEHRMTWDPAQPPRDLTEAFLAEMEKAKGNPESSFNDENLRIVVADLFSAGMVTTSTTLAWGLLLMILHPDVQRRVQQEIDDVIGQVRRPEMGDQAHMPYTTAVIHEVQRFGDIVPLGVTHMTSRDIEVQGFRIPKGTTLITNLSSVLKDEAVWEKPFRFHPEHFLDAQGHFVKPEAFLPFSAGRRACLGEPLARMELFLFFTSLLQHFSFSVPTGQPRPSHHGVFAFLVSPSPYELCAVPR
Sequence of CYP2C9 (P11712 whole entry): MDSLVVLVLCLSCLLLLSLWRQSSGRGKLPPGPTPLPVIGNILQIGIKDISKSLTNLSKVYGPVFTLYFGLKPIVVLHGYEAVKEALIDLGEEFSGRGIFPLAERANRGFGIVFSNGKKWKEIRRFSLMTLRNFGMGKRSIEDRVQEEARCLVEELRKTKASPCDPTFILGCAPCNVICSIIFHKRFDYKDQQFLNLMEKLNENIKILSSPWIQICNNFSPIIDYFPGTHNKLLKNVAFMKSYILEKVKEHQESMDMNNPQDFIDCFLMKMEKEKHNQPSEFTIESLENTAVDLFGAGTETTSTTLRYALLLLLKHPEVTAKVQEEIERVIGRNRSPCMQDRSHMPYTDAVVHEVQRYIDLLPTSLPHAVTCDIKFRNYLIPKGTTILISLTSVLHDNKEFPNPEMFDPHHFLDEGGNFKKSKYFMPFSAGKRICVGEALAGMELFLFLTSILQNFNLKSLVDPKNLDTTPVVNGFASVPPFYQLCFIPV

inhibition at 30 min, 10 µM (CYP2C19) [%]	inhibition at 30 min, 10 µM (CYP1A2) [%]	IC50 (CCR2b) [nM]	IC50 (CCR2 [1]) [nM]	inhibition at 30 min, 10 µM (CYP2C9) [%]	inhibition at 30 min, 10 µM (CYP3A4) [%]	inhibition at 30 min, 10 µM (CYP2D6) [%]	IC50 (CCR2 [2]) [nM]	SMILES	Cell viability, % @10 μM: HepG2 (HepG2) [%]	Cell viability, % @10 μM: CHO-K1 (CHO-K1) [%]	Cell viability, % @10 μM: NIH 3T3 (NIH 3T3) [%]	Cell viability, % @10 μM: HEK 293 (HEK 293) [%]
14.2	23.5	18	990	23.6	6.5	8.5	9	O=C(CNC(=O)c1cccc(C(F)(F)F)c1)N[C@@H]1CCN(CCN2CCN(C(=O)c3ccccc3)CC2)C1 [Example 6, N-{[1-(2-(4-benzoylpiperazine-1-yl)ethyl)-pyrrolidine-(3R)-yl-carbamoyl]-methyl}-3-trifluoromethylbenzamide]	73.5	84.6	70.6	59.3
9.5	6.6	120	4440	19	28.2	-3.5	70	Cc1ccccc1C(=O)N1CCN(CCN2CC[C@@H](NC(=O)CNC(=O)c3cccc(C(F)(F)F)c3)C2)CC1 [Example 7, N-{[1-(2-(4-(2-methylbenzoyl)piperazine-1-yl)ethyl)-pyrrolidine-(3R)-yl-carbamoyl]-methyl}-3-trifluoromethylbenzamide]	105.8	80.1	73.0	66.9
